Starred links: 1 amine or outer side, 2 acyl side, 3 side chain; linkers in the order of their positions; H or OH if unused. Positions of bridges follow the written chain, without caps; N, C: chain ends. Residues, ends and D or L forms follow the SMILES beside them. *: point of attachment. C20 diacid = O=C(O)CCCCCCCCCCCCCCCCCCC(=O)*; γGlu = O=C(O)[C@H](CCC(=O)[*:2])N[*:1]
Test: Assay (III) ThT fibrillation assay for physical stability
Type: physicochemical
Settings: for ThT pH 4.0 lag time: pH 4.0, ThT fibrillation assay
Procedure, shortened: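 Freshly prepared, pH-adjusted formulations with 1 μM ThT incubated at 37 °C under 960 rpm orbital shaking (1 mm), fluorescence (ex 444, em 485 nm) read every 20 min. […] Peptide content before and after measured by reverse-phase HPLC against pramlintide standard.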

Compound	ThT pH 4.0 lag time (physical stability in fibrillogenesis assay)	ThT pH 4.0 lag time
CC[C@H](C)[C@H](NC(=O)[C@@H]1CCCN1C(=O)CNC(=O)[C@H](Cc1ccccc1)NC(=O)[C@H](CCC(N)=O)NC(=O)[C@H](CCC(N)=O)NC(=O)[C@H](CO)NC(=O)[C@H](CO)NC(=O)[C@H](Cc1c[nH]cn1)NC(=O)[C@H](CCCNC(=N)N)NC(=O)[C@H](CC(C)C)NC(=O)[C@H](Cc1ccccc1)NC(=O)[C@H](CCC(=O)O)NC(=O)[C@H](C)NC(=O)[C@H](CC(C)C)NC(=O)[C@H](CCCNC(=N)N)NC(=O)[C@H](CCC(N)=O)NC(=O)[C@@H](NC(=O)[C@H](C)NC(=O)[C@@H]1CSSC[C@H](NC(=O)[C@H](CCC(=O)O)NC(=O)[C@H](CCCNC(=N)N)NC(=O)[C@H](CCC(=O)O)NC(=O)CC[C@H](NC(=O)CCCCCCCCCCCCCCCCCCC(=O)O)C(=O)O)C(=O)N[C@@H](CC(N)=O)C(=O)N[C@@H]([C@@H](C)O)C(=O)N[C@@H](C)C(=O)N[C@@H]([C@@H](C)O)C(=O)N1)[C@@H](C)O)C(=O)N[C@@H](CC(C)C)C(=O)N1CCC[C@H]1C(=O)N1CCC[C@H]1C(=O)N[C@H](C(=O)N[C@@H](CCC(N)=O)C(=O)N[C@H](C(=O)NCC(=O)N[C@@H](CO)C(=O)N[C@@H](CCC(N)=O)C(=O)N[C@H](C(=O)N1CCC[C@H]1C(N)=O)[C@@H](C)O)C(C)C)[C@@H](C)O [Example 164, N-alpha-[(S)-4-Carboxy-4-(19-carboxynonadecanoylamino)butyryl]-Glu-Arg-[Glu1,Glu14,Arg17,Gln21,Gln22,Gln31,Gln35,Pro37]-pramlintide] ({C20 diacid-γGlu}-ERECNTATCATQRLAEFLRHSSQQFGPILPPTQVGSQTP-NH2; disulfide 4-9 (inferred))	>45 h	>45 h
CC[C@H](C)[C@H](NC(=O)[C@@H]1CCCN1C(=O)CNC(=O)[C@H](Cc1ccccc1)NC(=O)[C@H](CC(N)=O)NC(=O)[C@H](CC(N)=O)NC(=O)[C@H](CO)NC(=O)[C@H](CO)NC(=O)[C@H](Cc1c[nH]cn1)NC(=O)[C@H](Cc1c[nH]cn1)NC(=O)[C@H](CC(C)C)NC(=O)[C@H](Cc1ccccc1)NC(=O)[C@H](CCC(=O)O)NC(=O)[C@H](C)NC(=O)[C@H](CC(C)C)NC(=O)[C@H](CCCCN)NC(=O)[C@H](CCC(N)=O)NC(=O)[C@@H](NC(=O)[C@H](C)NC(=O)[C@@H]1CSSC[C@H](NC(=O)[C@H](CCCCN)NC(=O)CC[C@H](NC(=O)CCCCCCCCCCCCCCCCCCC(=O)O)C(=O)O)C(=O)N[C@@H](CC(N)=O)C(=O)N[C@@H]([C@@H](C)O)C(=O)N[C@@H](C)C(=O)N[C@@H]([C@@H](C)O)C(=O)N1)[C@@H](C)O)C(=O)N[C@@H](CC(C)C)C(=O)N1CCC[C@H]1C(=O)N1CCC[C@H]1C(=O)N[C@H](C(=O)N[C@@H](CC(N)=O)C(=O)N[C@H](C(=O)NCC(=O)N[C@@H](CO)C(=O)N[C@@H](CC(N)=O)C(=O)N[C@H](C(=O)N1CCC[C@H]1C(N)=O)[C@@H](C)O)C(C)C)[C@@H](C)O [Example 145, N-alpha-[(S)-4-Carboxy-4-(19-carboxynonadecanoylamino)butyryl]-[Lys11,Glu14,His17,Pro37]-pramlintide] ({C20 diacid-γGlu}-KCNTATCATQKLAEFLHHSSNNFGPILPPTNVGSNTP-NH2; disulfide 2-7)	>45 h	>45 h

Reference: US8741836B2, “Polypeptides” (Novo Nordisk A/S, priority 2011, dated 2014)
